ChEMBL document CHEMBL1152756, “Photodynamic effects of novel 5,15-diaryl-tetrapyrrole derivatives on human colon carcinoma cells” (Bioorg Med Chem, 2009)
Values after ≈ are worked out from the molar mass of the structure shown. Active and inactive are the calls of the source. The calls are words filed in the database; no cut-off is given here.

Experiments:
HCT-116 [1] = assay: Phototoxicity against human HCT116 cells […] after 24 hrs irradiated with LED red light for 2 hrs followed by incubation in drug free medium for 24 hrs by MTT assay; assay type: functional, cell-based; settings: HCT-116, light or radiation study
HCT-116 [2] = assay: Induction of apoptosis in human HCT116 cells assessed as increase in Bax protein expression at IC50 after 24 hrs irradiated with tungsten-halogen white light for 2 hrs followed by incubation in drug free medium for 24 hrs […]; assay type: functional, cell-based
HCT-116 [3] = assay: Cell cycle arrest in human HCT116 cells assessed as accumulation at S phase at IC50 after 24 hrs irradiated with tungsten-halogen white light for 2 hrs followed by incubation in drug free medium for 24 hrs by flow cytometry; assay type: functional
HCT-116 [4] = assay: Induction of apoptosis in human HCT116 cells assessed as decrease in survivin protein expression at IC50 after 24 hrs irradiated with tungsten-halogen white light for 2 hrs followed by incubation in drug free medium for 24 hrs […]; assay type: functional, cell-based
HCT-116 [5] = assay: Cell cycle arrest in human HCT116 cells assessed as accumulation at G2/M phase at IC50 after 24 hrs irradiated with tungsten-halogen white light for 2 hrs followed by incubation in drug free medium for 24 hrs by flow cytometry; assay type: functional
HCT-116 [6] = assay: Induction of apoptosis in human HCT116 cells assessed as decrease in Bcl2 protein expression at IC50 after 24 hrs irradiated with tungsten-halogen white light for 2 hrs followed by incubation in drug free medium for 24 hrs […]; assay type: functional, cell-based
HCT-116 [7] = assay: Cell cycle arrest in human HCT116 cells assessed as accumulation at G1 phase at IC50 after 24 hrs irradiated with tungsten-halogen white light for 2 hrs followed by incubation in drug free medium for 24 hrs by flow cytometry; assay type: functional
HCT-116 [8] = assay: Induction of apoptosis in human HCT116 cells at IC50 after 24 hrs irradiated with tungsten-halogen white light for 2 hrs followed by incubation in drug free medium for 24 hrs using annexin V-FITC staining by FACS; assay type: functional, cell-based
HCT-116 [9] = assay: Phototoxicity against human HCT116 cells […] after 24 hrs irradiated with tungsten-halogen white light for 2 hrs followed by incubation in drug free medium for 24 hrs by MTT assay; assay type: functional, cell-based; settings: HCT-116, light or radiation study
HCT-116 [10] = assay: Induction of NO radical generation in human HCT116 cells at IC50 after 24 hrs irradiated with tungsten-halogen white light for 2 hrs followed by incubation in drug free medium for 24 hrs; assay type: functional, cell-based
HCT-116 [11] = assay: Induction of ROS generation in human HCT116 cells at IC50 after 24 hrs irradiated with tungsten-halogen white light for 2 hrs followed by incubation in drug free medium for 24 hrs by flow cytometry; assay type: functional, cell-based
HCT-116 [12] = assay: Phototoxicity against human HCT116 cells […] after 24 hrs irradiated with tungsten-halogen white light for 2 hrs followed by incubation in drug free medium for 24 hrs by MTT assay in presence of nitric oxide synthase inhibitor L-NMMA; assay type: functional, cell-based; settings: HCT-116, light or radiation study

Oc1cccc(-c2c3nc(cc4ccc([nH]4)c(-c4ccccc4)c4nc(cc5ccc2[nH]5)C=C4)CC3)c1
IC50 (HCT-116 [1]): 1.32 nM

COc1cccc(-c2c3nc(cc4ccc([nH]4)c(-c4ccccc4)c4nc(cc5ccc2[nH]5)C=C4)C=C3)c1
Activity (HCT-116 [2]): Active
Activity (HCT-116 [3]): 17.93%
Activity (HCT-116 [4]): Active
Activity (HCT-116 [5]): 29.6%
Activity (HCT-116 [6]): Active
Activity (HCT-116 [7]): 52.4%
Activity (HCT-116 [8]): Active

Oc1cccc(-c2c3nc(c(-c4cccc(O)c4)c4ccc([nH]4)c(-c4cccc(O)c4)c4nc(c(-c5cccc(O)c5)c5ccc2[nH]5)CC4)C=C3)c1 [TEMOPORFIN]
Activity (HCT-116 [2]): Active
Activity (HCT-116 [3]): 21.29%
Activity (HCT-116 [4]): Active
IC50 (HCT-116 [1]): 41 nM
Activity (HCT-116 [5]): 27.17%
Activity (HCT-116 [6]): Active
Activity (HCT-116 [7]): 51.53%
Activity (HCT-116 [8]): Active

C1=Cc2nc1cc1ccc([nH]1)c(-c1ccccc1)c1nc(cc3ccc([nH]3)c2-c2ccccc2)C=C1
Activity (HCT-116 [2]): Active
Activity (HCT-116 [3]): 17.89%
Activity (HCT-116 [4]): Active
Activity (HCT-116 [5]): 29.27%
Activity (HCT-116 [6]): Active
Activity (HCT-116 [7]): 52.83%
Activity (HCT-116 [8]): Active

Oc1cccc(-c2c3nc(cc4ccc([nH]4)c(-c4ccccc4)c4nc(cc5ccc2[nH]5)C=C4)C=C3)c1
Activity (HCT-116 [2]): Active
IC50 (HCT-116 [9]): 0.683 ng/mL (≈ 1.43 nM)
Activity (HCT-116 [3]): 21.28%
Activity (HCT-116 [10]): Active
Activity (HCT-116 [11]): Active
Activity (HCT-116 [4]): Active
IC50 (HCT-116 [1]): 3.96 nM
Activity (HCT-116 [5]): 29.69%
Activity (HCT-116 [6]): Active
Activity (HCT-116 [7]): 49.03%
IC50 (HCT-116 [12]): 0.482 ng/mL
Activity (HCT-116 [8]): Active
